“And” between values parts separate entries of the source, which are not always exact repeats. Equal entries are not always repeated.
Assays:
[1] = target: T1, purified human hemoglobin (Homo sapiens, UniProt P68871); assay: Oxygen dissociation curve (ODC) of purified hemoglobin, Hemox analyzer, P50; format: biochemical
T1 construct: For experiments with purified hemoglobin, hemoglobin (20 μM as tetramer) was dissolved in DPBS
Protocol: The ODC of hemoglobin was measured with a Hemox analyzer (TCS Scientific Corporation) at 37° C. For experiments with purified hemoglobin, hemoglobin (20 μM as tetramer) was dissolved in DPBS and antifoam (0.2 vol %, Catalog No. AFA-25, TCS Scientific Corporation) was added to prevent foaming of the sample. Compounds were prepared in DMSO stock solutions then added to hemoglobin. The final concentration of DMSO was adjusted to 5 vol %. For experiments with RBCs, blood was drawn from volunteers into EDTA tubes. The blood was centrifuged for 15 min at 3,000 rpm at 4° C. The supernatant was discarded, and RBCs were washed three times with DPBS, pH 7.4 by dilution to 50% hematocrit. The washed RBCs were then diluted with Hemox solution (mixture of N-[Tris(hydroxymethyl)methyl]-2-aminoethanesulfonic acid (TES, 30 mM), sodium chloride (135 mM), and potassium chloride (5 mM) in water (pH 7.4), TCS Scientific Corporation), and mixed with the test compound stock solutions. When known allosteric effectors NEM (400 μM), 5HMF (2 mM) or formamidine disulfide (400 μM) were mixed with RBCs (20 μM as hemoglobin tetramer) for 1 h at 37° C., P50 was reduced to 8 Torr, 9 Torr, and 9 Torr respectively, which correlated with previous reports (see Garel et al., European Journal of Biochemistry, 1982, 123, 513-519). Data was analyzed by two-tailed, unpaired Student's t test using Microsoft Excel 2007.
A saturating effect on P50 was first determined by adding an increasing concentration of 2,3-DPG and IHP. No increase of P50 of hemoglobin was observed after an addition of a 30-fold molar excess of 2,3-DPG or IHP to hemoglobin. Hemoglobin (20 μM as tetramer) was pre-incubated with either 2,3-DPG (600 μM) or IHP (600 μM) followed by addition of Compound 1 (0, 50, 100, 150 and 200 μM) to the hemoglobin.

[2] = tested on: RBCs; assay: Hemolysis of RBCs / blood on incubation with compound; format: cell-based, human; details: compound 20 μM in DPBS with 5% DMSO
[3] = target: deoxygenated hemoglobin (deoxyHb) (Homo sapiens, UniProt P68871); assay: X-ray crystallography of deoxyHb complexed with Compound 1; format: binding; details: PDB 4L7Y, 1.80 Å
Protocol: To obtain unliganded hemoglobin structure in complex with 1, freshly prepared solution of 1 in DMSO was incubated with deoxygenated hemoglobin (deoxyHb) (30-50 mg/mL) for 1 h at a hemoglobin tetramer-1 molar ratio of 1:5, followed by crystallization with a low-salt precipitant (0.2 M sodium acetate trihydrate, 0.1 M sodium cacodylate trihydrate, pH 6.6 and 30% PEG 8000). The crystals were washed in a cryo-protectant solution containing mother liquor and glycerol (3:1 ratio) prior to data collection. The complex crystallized in the orthorhombic space group P21212 with typical cell dimensions a=96 Å, b=98 Å and c=65 Å with one functional tetramer per asymmetric unit.
Diffraction data of all crystals were collected at 100 K with a Rigaku IV ++ image plate detector using a CuKα X-rays (k=1.54 Å) from a MicroMax-007 source fitted with Varimax Confocal optics (Rigaku, The Woodlands, Tex.). The datasets were processed with the d*trek software (Rigaku) and the CCP4 suite of programs.
Initial phase for the deoxyHb-1 complex structure was obtained by a molecular replacement method with the program CNS, using human deoxyHb […] tetramer structure (PDB code 2DN2) as a search model. Subsequent structure refinements were performed with the CNS program. Model building and correction were carried out using the graphic program COOT. […]

Cc1cc(C)cc(C(=O)N(C)[C@H](Cc2ccc(-c3ccccc3)cc2)C(=O)N[C@@H](Cc2c[nH]c3ccccc23)C(=O)O)c1 [Compound 1, (S)-2-((R)-3-([1,1′-biphenyl]-4-yl)-2-(N,3,5-trimethylbenzamido)propanamido)-3-(1H-indol-3-yl)propanoic acid]
Increase of P50 of hemoglobin, dose dependence ([1]; FIG. 3, FIG. 6-7): concentration-dependent | P50 of hemoglobin ([1]; hemoglobin 20 μM tetramer, compound 200 μM, DPBS pH 7.4, 5 vol % DMSO, 37° C., hemoglobin alone 17 Torr): 24 Torr and 24±0.4 Torr | P50 of hemoglobin pre-saturated with 2,3-DPG plus Compound 1 ([1]; hemoglobin 20 μM, 2,3-DPG 600 μM, Compound 1 200 μM): 29±0.5 Torr | Synergistic reduction of oxygen binding affinity in combination with 2,3-DPG ([1]; hemoglobin 20 μM, 2,3-DPG 600 μM, Compound 1 up to 200 μM): synergistic reduction | Synergistic reduction of oxygen binding affinity in combination with IHP ([1]; hemoglobin 20 μM, IHP 600 μM, Compound 1 up to 200 μM): did not induce a synergistic reduction | P50 with purified hemoglobin ([1]; hemoglobin 20 μM, tested compound 120 μM, purified hemoglobin alone 17 Torr): 24 Torr | Hemolysis of RBCs [2]: hemolysis | Binding site in deoxyHb crystal structure [3]: non-covalently binds at the β-cleft on the dyad axis
